ChEMBL document CHEMBL5325486, “Synthesis of novobiocin derivatives and evaluation of their antigonococcal activity and pharmacokinetics” (Bioorg Med Chem, 2023)
In brackets after ≈: the same amount, converted by molar mass.

Tests used:
[1] = test system: Staphylococcus aureus; assay: Antibacterial activity against Staphylococcus aureus assessed inhibition of bacterial growth; type: functional
[2] = test system: Neisseria gonorrhoeae; assay: Antibacterial activity against resistant Neisseria gonorrhoeae assessed inhibition of bacterial growth; type: functional
[3] = test system: Neisseria gonorrhoeae; assay: Antibacterial activity against Neisseria gonorrhoeae clinical isolate assessed inhibition of bacterial growth; type: functional
[4] = Aqueous solubility of compound in acidic JP1 solution; type: physicochemical; details: JP1 solution; read-out: solubility
[5] = Aqueous solubility of compound in neutral JP2 solution; type: physicochemical; details: JP2 solution; read-out: solubility
[6] = Metabolic stability in mouse liver microsomes assessed as residual rate; type: ADME, Microsome
[7] = Effective permeability of compound by PAMPA assay; type: ADME; details: read-out: Peff
[8] = test system: Neisseria gonorrhoeae; assay: Antibacterial activity against azithromycin resistant Neisseria gonorrhoeae assessed inhibition of bacterial growth; type: functional
[9] = test system: Neisseria gonorrhoeae; assay: Antibacterial activity against ceftriaxone intermediate resistant Neisseria gonorrhoeae assessed inhibition of bacterial growth; type: functional

## CO[C@@H]1[C@@H](OC(=O)c2ccc(C)[nH]2)[C@@H](O)[C@H](Oc2ccc3c(O)c(NC(=O)c4ccc(C)c(C)c4)c(=O)oc3c2C)OC1(C)C
[1]
  MIC50: 0.016 µg/mL (≈ 0.0258 µM)
  MIC90: 0.016 µg/mL (≈ 0.0258 µM)
[2]
  MIC50: 0.125 µg/mL (≈ 0.201 µM)
  MIC90: 0.125 µg/mL (≈ 0.201 µM)
[3]
  MIC90: 0.25 µg/mL (≈ 0.403 µM)
[4]
  solubility: < 1 µM
[5]
  solubility: 79.1 µM (≈ 49.1 µg/mL)
[6]
  Stability: 80.8%
[7]
  Papp: 18 ×10⁻⁶ cm/s

## C=Cc1cc(C(=O)Nc2c(O)c3ccc(O[C@@H]4OC(C)(C)[C@H](OC)[C@@H](OC(=O)c5ccc(C)[nH]5)[C@H]4O)c(C)c3oc2=O)ccc1N
[1]
  MIC50: 0.25 µg/mL (≈ 0.395 µM)
  MIC90: 0.5 µg/mL (≈ 0.789 µM)
[2]
  MIC50: 0.25 µg/mL (≈ 0.395 µM)
  MIC90: 0.5 µg/mL (≈ 0.789 µM)
[3]
  MIC90: 0.25 µg/mL (≈ 0.395 µM)
[4]
  solubility: 1.79 µM (≈ 1.13 µg/mL)
[5]
  solubility: 65.8 µM (≈ 41.7 µg/mL)
[6]
  Stability: 104%
[7]
  Papp: 8.06 ×10⁻⁶ cm/s

## CC[C@H]1OC(=O)[C@@](C)(F)C(=O)[C@H](C)[C@@H](O[C@@H]2O[C@H](C)C[C@H](N(C)C)[C@H]2O)[C@](C)(OC)C[C@@H](C)C(=O)[C@H](C)[C@H]2N(CCCCn3cc(-c4cccc(N)c4)nn3)C(=O)O[C@]12C [SOLITHROMYCIN]
[3]
  MIC90: 0.25 µg/mL (≈ 0.296 µM)
[4]
  solubility: > 80 µM
[5]
  solubility: 49.4 µM (≈ 41.7 µg/mL)
[6]
  Stability: 104%
[7]
  Papp: 0.653 ×10⁻⁶ cm/s

## CO[C@@H]1[C@@H](OC(=O)c2ccc(C)[nH]2)[C@@H](O)[C@H](Oc2ccc3c(O)c(NC(=O)c4cn(C)cn4)c(=O)oc3c2C)OC1(C)C
[1]
  MIC50: 0.5 µg/mL (≈ 0.838 µM)
  MIC90: 0.5 µg/mL (≈ 0.838 µM)
[2]
  MIC50: 0.25 µg/mL (≈ 0.419 µM)
  MIC90: 0.5 µg/mL (≈ 0.838 µM)
[3]
  MIC90: 0.25 µg/mL (≈ 0.419 µM)
[4]
  solubility: > 80 µM
[5]
  solubility: > 80 µM
[6]
  Stability: 119%
[7]
  Papp: 1.61 ×10⁻⁶ cm/s

## CO[C@@H]1[C@@H](OC(=O)c2ccc(C)[nH]2)[C@@H](O)[C@H](Oc2ccc3c(O)c(NC(=O)c4ccc(O)c(CC=C(C)C)c4)c(=O)oc3c2C)OC1(C)C
[1]
  MIC50: 0.008 µg/mL (≈ 0.0118 µM)
  MIC90: 0.08 µg/mL (≈ 0.118 µM)
[2]
  MIC50: 0.063 µg/mL (≈ 0.0931 µM)
  MIC90: 0.125 µg/mL (≈ 0.185 µM)
[8]
  MIC: 0.008 µg/mL (≈ 0.0118 µM)
[9]
  MIC: 0.063 µg/mL (≈ 0.0931 µM)
[3]
  MIC90: 0.063 µg/mL (≈ 0.0931 µM)
[4]
  solubility: < 1 µM
[5]
  solubility: 69.2 µM (≈ 46.8 µg/mL)
[6]
  Stability: 92.7%
[7]
  Papp: 10.3 ×10⁻⁶ cm/s

## C#CCONC(=O)O[C@H]1[C@@H](O)[C@H](Oc2ccc3c(O)c(NC(=O)c4ccc(O)c(CC=C(C)C)c4)c(=O)oc3c2C)OC(C)(C)[C@@H]1OC
[1]
  MIC50: 0.063 µg/mL (≈ 0.0945 µM)
  MIC90: 0.063 µg/mL (≈ 0.0945 µM)
[2]
  MIC50: 0.25 µg/mL (≈ 0.375 µM)
  MIC90: 0.5 µg/mL (≈ 0.75 µM)
[3]
  MIC90: 0.125 µg/mL (≈ 0.187 µM)
[4]
  solubility: < 1 µM
[5]
  solubility: 69.3 µM (≈ 46.2 µg/mL)
[6]
  Stability: 47.2%
[7]
  Papp: 1.14 ×10⁻⁶ cm/s
